# In patent US8541395B2 (priority 2009, dated 2013):
# How the values were obtained:
# Cav3.2 = Cav3.2 (Homo sapiens, UniProt O95180); assay type: cell-based; conditions: 100 μM; n=2
# Method: (§1) The studies were conducted according to the conventional procedures.
# (§2) The exposure duration of each channel was 5 minutes. […] Any left current after exposure to this dose was digitally subtracted to eliminate the contribution of any endogenous current.
# HCN2 = molecular target: T1, HCN2 (Homo sapiens, UniProt Q9UL51); assay: Patch clamp assay, ion channel inhibition; conditions: read-out: Mean % inhibition (positive control)
# T1 sequence (Q9UL51 1-889): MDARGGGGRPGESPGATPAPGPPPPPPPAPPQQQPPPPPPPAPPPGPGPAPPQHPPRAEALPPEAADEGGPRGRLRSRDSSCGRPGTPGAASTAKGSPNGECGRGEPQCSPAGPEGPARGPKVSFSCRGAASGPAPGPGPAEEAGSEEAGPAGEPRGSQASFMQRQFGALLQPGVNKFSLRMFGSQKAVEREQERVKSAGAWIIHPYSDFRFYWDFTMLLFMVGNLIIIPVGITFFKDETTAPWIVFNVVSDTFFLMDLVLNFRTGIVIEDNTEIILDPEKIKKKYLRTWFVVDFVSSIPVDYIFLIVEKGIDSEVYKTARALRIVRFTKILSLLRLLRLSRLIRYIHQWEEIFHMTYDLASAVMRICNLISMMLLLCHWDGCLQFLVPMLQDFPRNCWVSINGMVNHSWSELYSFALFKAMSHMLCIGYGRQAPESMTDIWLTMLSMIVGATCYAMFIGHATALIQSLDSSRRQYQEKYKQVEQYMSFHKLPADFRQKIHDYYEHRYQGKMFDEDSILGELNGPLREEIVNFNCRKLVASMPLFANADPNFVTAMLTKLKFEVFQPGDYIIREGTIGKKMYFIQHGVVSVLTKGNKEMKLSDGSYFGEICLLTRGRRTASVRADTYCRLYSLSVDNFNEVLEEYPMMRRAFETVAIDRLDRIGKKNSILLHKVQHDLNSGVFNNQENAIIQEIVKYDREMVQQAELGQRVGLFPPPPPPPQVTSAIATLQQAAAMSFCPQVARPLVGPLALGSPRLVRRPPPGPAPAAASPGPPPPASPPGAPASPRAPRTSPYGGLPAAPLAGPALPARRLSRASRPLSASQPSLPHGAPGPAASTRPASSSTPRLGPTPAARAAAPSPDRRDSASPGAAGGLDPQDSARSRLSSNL
# Method: as §1, §2
# HCN4 = molecular target: T2, HCN4 (Homo sapiens, UniProt Q9Y3Q4); assay: Patch clamp assay, ion channel inhibition; conditions: read-out: Mean % inhibition (positive control)
# T2 sequence (Q9Y3Q4 1-1203): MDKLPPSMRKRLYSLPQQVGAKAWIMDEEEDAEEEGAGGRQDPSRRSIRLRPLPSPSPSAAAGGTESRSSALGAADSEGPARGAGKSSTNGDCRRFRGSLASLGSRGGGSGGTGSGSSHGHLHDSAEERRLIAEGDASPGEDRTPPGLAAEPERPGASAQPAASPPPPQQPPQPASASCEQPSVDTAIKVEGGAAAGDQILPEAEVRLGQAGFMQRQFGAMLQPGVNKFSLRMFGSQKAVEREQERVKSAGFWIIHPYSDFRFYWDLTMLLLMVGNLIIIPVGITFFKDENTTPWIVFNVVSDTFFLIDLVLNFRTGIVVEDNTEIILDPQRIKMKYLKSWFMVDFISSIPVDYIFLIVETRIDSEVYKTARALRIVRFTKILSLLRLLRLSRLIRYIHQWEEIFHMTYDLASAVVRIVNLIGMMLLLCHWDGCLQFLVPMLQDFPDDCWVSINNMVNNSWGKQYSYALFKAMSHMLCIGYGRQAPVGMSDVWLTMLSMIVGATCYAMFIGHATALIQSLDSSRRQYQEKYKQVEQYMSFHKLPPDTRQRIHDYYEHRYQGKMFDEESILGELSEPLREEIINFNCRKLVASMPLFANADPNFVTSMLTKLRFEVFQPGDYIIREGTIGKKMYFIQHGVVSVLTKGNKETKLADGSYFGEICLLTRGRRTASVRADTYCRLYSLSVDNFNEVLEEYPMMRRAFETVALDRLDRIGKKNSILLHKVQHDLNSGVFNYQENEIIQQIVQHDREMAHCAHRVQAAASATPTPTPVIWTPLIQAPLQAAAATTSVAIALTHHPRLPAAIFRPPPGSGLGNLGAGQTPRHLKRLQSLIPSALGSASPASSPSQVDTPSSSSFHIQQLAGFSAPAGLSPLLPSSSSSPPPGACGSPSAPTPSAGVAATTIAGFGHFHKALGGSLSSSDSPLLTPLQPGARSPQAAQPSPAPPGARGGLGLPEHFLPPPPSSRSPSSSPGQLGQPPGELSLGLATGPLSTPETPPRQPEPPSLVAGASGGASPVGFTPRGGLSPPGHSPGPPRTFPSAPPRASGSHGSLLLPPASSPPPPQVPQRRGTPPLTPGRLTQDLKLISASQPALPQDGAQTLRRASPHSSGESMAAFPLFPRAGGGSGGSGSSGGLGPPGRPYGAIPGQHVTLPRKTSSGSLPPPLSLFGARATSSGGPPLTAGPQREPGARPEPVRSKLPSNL
# Method: as §1, §2
# Sequence of Cav3.2 (O95180 whole entry): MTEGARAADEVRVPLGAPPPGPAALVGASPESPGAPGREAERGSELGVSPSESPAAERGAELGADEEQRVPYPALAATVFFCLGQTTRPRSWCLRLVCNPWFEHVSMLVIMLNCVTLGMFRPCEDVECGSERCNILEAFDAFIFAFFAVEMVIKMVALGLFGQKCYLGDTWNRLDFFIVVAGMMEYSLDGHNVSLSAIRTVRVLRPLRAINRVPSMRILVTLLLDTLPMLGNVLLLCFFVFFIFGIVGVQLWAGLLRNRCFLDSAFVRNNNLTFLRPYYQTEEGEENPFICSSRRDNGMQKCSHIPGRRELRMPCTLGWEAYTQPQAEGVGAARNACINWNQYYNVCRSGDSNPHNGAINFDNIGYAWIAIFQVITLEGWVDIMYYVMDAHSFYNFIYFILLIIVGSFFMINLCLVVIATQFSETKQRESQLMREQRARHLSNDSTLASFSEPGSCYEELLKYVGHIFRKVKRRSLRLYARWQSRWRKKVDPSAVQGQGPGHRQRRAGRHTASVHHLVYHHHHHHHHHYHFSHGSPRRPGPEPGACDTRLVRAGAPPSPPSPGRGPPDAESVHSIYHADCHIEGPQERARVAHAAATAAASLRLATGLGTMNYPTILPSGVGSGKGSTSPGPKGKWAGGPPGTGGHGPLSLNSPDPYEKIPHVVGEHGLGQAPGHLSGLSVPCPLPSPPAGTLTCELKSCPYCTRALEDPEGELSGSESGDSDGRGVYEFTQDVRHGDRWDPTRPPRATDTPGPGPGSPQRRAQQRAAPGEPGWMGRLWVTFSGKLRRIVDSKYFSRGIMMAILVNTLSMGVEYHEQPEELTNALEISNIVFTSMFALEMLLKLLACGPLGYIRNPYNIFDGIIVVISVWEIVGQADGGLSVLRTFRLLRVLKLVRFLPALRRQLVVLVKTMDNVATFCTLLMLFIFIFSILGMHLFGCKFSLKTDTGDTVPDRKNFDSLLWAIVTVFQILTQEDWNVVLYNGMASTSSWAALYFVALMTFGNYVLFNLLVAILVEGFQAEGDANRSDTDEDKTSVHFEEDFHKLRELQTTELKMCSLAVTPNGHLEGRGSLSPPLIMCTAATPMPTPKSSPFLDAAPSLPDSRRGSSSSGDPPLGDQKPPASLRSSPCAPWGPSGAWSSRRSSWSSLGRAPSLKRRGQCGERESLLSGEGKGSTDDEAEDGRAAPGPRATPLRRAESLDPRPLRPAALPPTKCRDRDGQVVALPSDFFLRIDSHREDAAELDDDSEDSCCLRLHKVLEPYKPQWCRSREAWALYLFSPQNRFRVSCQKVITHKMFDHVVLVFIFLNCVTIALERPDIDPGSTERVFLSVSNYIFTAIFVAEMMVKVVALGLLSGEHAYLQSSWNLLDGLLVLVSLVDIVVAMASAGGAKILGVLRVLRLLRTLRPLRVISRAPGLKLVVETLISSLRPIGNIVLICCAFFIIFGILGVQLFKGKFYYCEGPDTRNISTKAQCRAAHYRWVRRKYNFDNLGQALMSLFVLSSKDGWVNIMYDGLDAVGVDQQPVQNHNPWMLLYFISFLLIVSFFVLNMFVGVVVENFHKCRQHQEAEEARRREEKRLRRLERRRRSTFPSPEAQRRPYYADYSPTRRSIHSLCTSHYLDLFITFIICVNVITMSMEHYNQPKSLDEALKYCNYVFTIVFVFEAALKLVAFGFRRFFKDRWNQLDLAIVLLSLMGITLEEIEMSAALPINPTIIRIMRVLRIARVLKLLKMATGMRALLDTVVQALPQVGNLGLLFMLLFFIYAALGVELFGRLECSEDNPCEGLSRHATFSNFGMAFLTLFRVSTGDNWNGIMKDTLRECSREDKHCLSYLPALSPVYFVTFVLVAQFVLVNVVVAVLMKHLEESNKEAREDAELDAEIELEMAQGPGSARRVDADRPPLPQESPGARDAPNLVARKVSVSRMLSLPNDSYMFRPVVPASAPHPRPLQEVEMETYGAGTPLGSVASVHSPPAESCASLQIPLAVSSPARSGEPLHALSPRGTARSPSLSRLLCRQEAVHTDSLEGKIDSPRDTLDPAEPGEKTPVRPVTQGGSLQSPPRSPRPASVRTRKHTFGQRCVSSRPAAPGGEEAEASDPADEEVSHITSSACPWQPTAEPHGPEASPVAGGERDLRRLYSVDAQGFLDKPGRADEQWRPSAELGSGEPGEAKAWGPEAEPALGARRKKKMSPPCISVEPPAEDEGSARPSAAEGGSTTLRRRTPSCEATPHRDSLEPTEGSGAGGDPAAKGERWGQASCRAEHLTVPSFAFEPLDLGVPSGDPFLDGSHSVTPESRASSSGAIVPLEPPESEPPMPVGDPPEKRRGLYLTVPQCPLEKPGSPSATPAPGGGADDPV
SMILES,Mean % inhibition (positive control) (Cav3.2),inhibition at 100 µM (HCN2),inhibition at 10 µM (HCN4)
[Ni] [Nickel],76.6%,,
COc1ccc(CCN(C)CCCN2CCc3cc(OC)c(OC)cc3CC2=O)cc1OC [Zatebradine],,96.1%,88.3%
